# Test results reported in patent publication US7135615B2, “Chromosome doubling method” (The Curators of the University of Missouri, priority 2001, dated 2006).
# Marks after values point to notes of the source that are not given here.
# Experiments:
# [1] = system: maize Oh43 haploid seedlings; assay: nitrous oxide gas treatment at 3–8 leaf stages, Oh43 haploids (Example 3); settings: 8 leaf stage, 600 kPa, 2 days
# Text: Leaf stages were defined as follows, At the 3 leaf stage, there are three elongated leaves and the tip of the fourth leaf appears at the center of the leaf whorl. This stage is defined as V2 according to Ritchie et al. (1997). At the 8 leaf stage, there are 8 elongated leaves and the tip of the 9th and 10th leaves appear at the center of the leaf whorl (late V5 stage). At the 6 leaf stage, six elongated leaves are observable, and the tip of seventh leaf appears at the leaf whorl (late V4 or early V5 stage). Nine to sixteen haploid plants were treated at each stage using a large air tight iron chamber (FIG. 3). […] Moistened calcium hydroxide (50 g) wrapped in a paper towel was included to absorb carbon dioxide that is produced by the seedlings, as carbon dioxide at high concentration will injure the seedlings during the treatment. The soil of the pots was dried prior to treatment to prevent root injuries. […] The gas was introduced slowly into the chamber over a 10 minutes time frame.
# After the treatment, seedlings were transplanted into larger pots, and grown in a greenhouse. A relatively cool temperature (below 25° C.) was maintained to permit the appropriate development of doubled sectors. At flowering, the ears were cross pollinated by an appropriate pollen source to reveal all the fertile sectors on the ears. On the treated plants, plant height (cm), tassel size (cm), number of tassel branches, ear length (cm), the number of fertile sectors on a tassel and an ear, the number of anthers on a tassel, and the number of kernels on an ear were recorded.
# Analyses of variance and Duncan's Multiple Range Tests were performed to determine the effects of treatments on the plant height (cm), tassel size (cm), and ear length (cm). Chi square tests were used to determine the effects of treatments upon the proportion of plants that developed fertile tassel and ear sectors. The ratios of untreated plants with fertile sectors were used to estimate the significance of the ratio of treated plants with fertile sectors.
# Nonparametric tests were performed to compare the distributions. The primary test was the Kruskal-Wallis test. In the initial tests, the null hypothesis considered was that the distributions would be the same for each treatment and control. If the null hypothesis was rejected (P<0.05), then pair wise comparisons of each treatment to the control using Dunn's method were conducted. The tassel branch number was low incidence count data and was analyzed using the same nonparametric tests mentioned above.
# [2] = system: maize haploid seedlings of origin Oh43 × Mo17; assay: doubled haploid production trial, Oh43 × Mo17 haploids (Example 4); settings: 600 kPa, 2 days; for Ear: No. of kernels produced/ear: selfed
# Description: (§1) Ten to nineteen plants were treated for each plot. Self pollinations were conducted on these treated haploids if there were fertile sectors on the tassel. Pollen grains were collected carefully on a sheet of paper and transferred to the silks repeatedly. Silks and husks were cut back prior to pollination in order to permit maximum seed set. The numbers of fertile tassel and ear sectors, as well as the numbers of anthers and selfed kernels were recorded. Statistical analyses were as described above.
# [3] = system: maize haploid seedlings of various origin; assay: doubled haploid production trial, combined data (Total/Average) of haploids of eight different origins; settings: for Ear: Plants with kernels after selfing % / Tassel: No. of fertile anthers extruded/tassel / Tassel: No. of fertile sectors/tassel / Tassel: Plants with fertile sectors % / Ear: Plants with kernels after selfing No. / Tassel: Plants with fertile sectors No. / No. of plants Survived / Ear: No. of kernels produced/ear: Total/Average of eight origins, 600 kPa, 2 days; for Ear: No. of kernels produced/ear: selfed
# Description: as §1
compound,measurement,setting,value
"[N-]=[N+]=O [nitrous oxide gas, nitrous oxide]",Ear (open pollinated): No. of kernels produced /ear,[1],4.1 /ear
same,Ear (open pollinated): Plants with fertile sectors %,[1],46%
same,No. of tassel branch Average,[1],5.3*
same,Plant height (cm) Average,[1],122 b cm
same,Tassel: No. of fertile anthers extruded/tassel,[1],3.1** /tassel
same,Tassel: No. of fertile sectors/tassel,[1],1.4** /tassel
same,Tassel: Plants with fertile sectors %,[1],69** %
same,Ear (open pollinated): Plants with fertile sectors No.,[1]; 13 examined,6
same,Tassel: Plants with fertile sectors No.,[1]; 13 examined,9
same,No. of plants Survived,[1]; 16 treated,13
same,Ear: Plants with kernels after selfing %,[2]; 5 leaf stage,27 n.s. %
same,Tassel: No. of fertile anthers extruded/tassel,[2]; 5 leaf stage,4.2 /tassel
same,Tassel: Plants with fertile sectors %,[2]; 5 leaf stage,73** %
same,Ear: Plants with kernels after selfing No.,"[2]; 5 leaf stage, 11 survived",3
same,Tassel: Plants with fertile sectors No.,"[2]; 5 leaf stage, 11 survived",8
same,No. of plants Survived,"[2]; 5 leaf stage, 11 treated",11
same,Ear: No. of kernels produced/ear,[2]; 5 leaf stage,0.5 n.s. /ear
same,Ear: Plants with kernels after selfing %,[2]; 6 leaf stage,38%
same,Tassel: No. of fertile anthers extruded/tassel,[2]; 6 leaf stage,29.8** /tassel
same,Tassel: No. of fertile sectors/tassel,[2]; 6 leaf stage,2.5** /tassel
same,Tassel: Plants with fertile sectors %,[2]; 6 leaf stage,100** %
same,Ear: Plants with kernels after selfing No.,"[2]; 6 leaf stage, 13 survived",5
same,Tassel: Plants with fertile sectors No.,"[2]; 6 leaf stage, 13 survived",13
same,No. of plants Survived,"[2]; 6 leaf stage, 14 treated",13
same,Ear: No. of kernels produced/ear,[2]; 6 leaf stage,3.8 /ear
same,Ear: Plants with kernels after selfing %,[2]; 7 leaf stage,13%
same,Tassel: No. of fertile anthers extruded/tassel,[2]; 7 leaf stage,8.3* /tassel
same,Tassel: No. of fertile sectors/tassel,[2]; 7 leaf stage,1.8** /tassel
same,Tassel: Plants with fertile sectors %,[2]; 7 leaf stage,73** %
same,Ear: Plants with kernels after selfing No.,"[2]; 7 leaf stage, 15 survived",2
same,Tassel: Plants with fertile sectors No.,"[2]; 7 leaf stage, 15 survived",11
same,No. of plants Survived,"[2]; 7 leaf stage, 19 treated",15
same,Ear: No. of kernels produced/ear,[2]; 7 leaf stage,0.6 /ear
same,Ear: Plants with kernels after selfing %,[3]; 5 leaf stage,36** %
same,Tassel: No. of fertile anthers extruded/tassel,[3]; 5 leaf stage,32.3** /tassel
same,Tassel: No. of fertile sectors/tassel,[3]; 5 leaf stage,0.9** /tassel
same,Tassel: Plants with fertile sectors %,[3]; 5 leaf stage,61** %
same,Ear: Plants with kernels after selfing No.,"[3]; 5 leaf stage, 95 survived",33
same,Tassel: Plants with fertile sectors No.,"[3]; 5 leaf stage, 95 survived",58
same,No. of plants Survived,"[3]; 5 leaf stage, 102 treated",95
same,Ear: No. of kernels produced/ear,[3]; 5 leaf stage,4.4** /ear
same,Ear: Plants with kernels after selfing %,[3]; 6 leaf stage,44%
same,Tassel: No. of fertile anthers extruded/tassel,[3]; 6 leaf stage,74.3 /tassel
same,Tassel: No. of fertile sectors/tassel,[3]; 6 leaf stage,2.1** /tassel
same,Tassel: Plants with fertile sectors %,[3]; 6 leaf stage,78** %
same,Ear: Plants with kernels after selfing No.,"[3]; 6 leaf stage, 90 survived",39
same,Tassel: Plants with fertile sectors No.,"[3]; 6 leaf stage, 90 survived",70
same,No. of plants Survived,"[3]; 6 leaf stage, 97 treated",90
same,Ear: No. of kernels produced/ear,[3]; 6 leaf stage,8.6** /ear
same,Ear: Plants with kernels after selfing %,[3]; 7 leaf stage,34** %
same,Tassel: No. of fertile anthers extruded/tassel,[3]; 7 leaf stage,63.5** /tassel
same,Tassel: No. of fertile sectors/tassel,[3]; 7 leaf stage,2.8** /tassel
same,Tassel: Plants with fertile sectors %,[3]; 7 leaf stage,74** %
same,Ear: Plants with kernels after selfing No.,"[3]; 7 leaf stage, 90 survived",29
same,Tassel: Plants with fertile sectors No.,"[3]; 7 leaf stage, 90 survived",67
same,No. of plants Survived,"[3]; 7 leaf stage, 101 treated",90
same,Ear: No. of kernels produced/ear,[3]; 7 leaf stage,7.0** /ear
same,effect of treatment on fertility,"[3]; haploids derived from A619, B73 and W22×W23",no significant effect
same,treated haploids that produced double haploid progenies after self pollination,"[3]; haploids induced from Oh43, A619×B73, and Oh43×Mol7",about 30%
